Assays:
Assay type in all cases: in vivo
[1] = tested on: barley crop plants; experiment: Crop phytotoxicity comparison, post-emergence, barley
Protocol: (§1) Seeds of a variety of test species are sown in standard soil in pots (Lolium perenne (LOLPE), Setaria faberi (SETFA), Alopecurus myosuroides (ALOMY), Echinochloa crus-galli (ECHCG), Avena fatua (AVEFA)). After cultivation for one day (pre-emergence) or after 8 days cultivation (post-emergence) under controlled conditions in a glasshouse (at 24/16° C., day/night; 14 hours light; 65% humidity), the plants are sprayed with an aqueous spray solution derived from the formulation of the technical active ingredient in acetone/water (50:50) solution containing 0.5% Tween 20 (polyoxyethelyene sorbitan monolaurate, CAS RN 9005-64-5). Compounds are applied at 250 g/h. The test plants are then grown in a glasshouse under controlled conditions in a glasshouse (at 24/16° C., day/night; 14 hours light; 65% humidity) and watered twice daily. After 13 days for pre and post-emergence, the test is evaluated for the percentage damage caused to the plant. The biological activities are shown in the following table on a five-point scale (5=80-100%; 4=60-79%; 3=40-59%; 2=20-39%; 1=0-19%). NT=not tested.
(§2) Using procedures outlines above, wheat and barley crop plants are treated, post-emergence with compounds A1 or A4 of the present invention or comparator compound C1 (Compound A-38 from WO2014/096289) at the application rates indicated. The compounds were also applied in conjunction with the safener compound cloquintocet-mexyl (CQC) at 50 g/ha.

[2] = tested on: Setaria faberi (SETFA); experiment: Herbicidal glasshouse test, pre-emergence, SETFA; details: 250 g/Ha, evaluated after 13 days
Protocol: (§3) Seeds of a variety of test species are sown in standard soil in pots (Lolium perenne (LOLPE), Setaria faberi (SETFA), Alopecurus myosuroides (ALOMY), Echinochloa crus-galli (ECHCG), Avena fatua (AVEFA)). […] Compounds are applied at 250 g/h. The test plants are then grown in a glasshouse under controlled conditions in a glasshouse (at 24/16° C., day/night; 14 hours light; 65% humidity) and watered twice daily. After 13 days for pre and post-emergence, the test is evaluated for the percentage damage caused to the plant. […] NT=not tested.

[3] = tested on: Setaria faberi (SETFA); experiment: Herbicidal glasshouse test, post-emergence, SETFA; details: 250 g/Ha, evaluated after 13 days
Protocol: as §3

[4] = tested on: Avena fatua (AVEFA); experiment: Herbicidal glasshouse test, post-emergence, AVEFA; details: 250 g/Ha, evaluated after 13 days
Protocol: as §3

[5] = tested on: Lolium perenne (LOLPE); experiment: Herbicidal glasshouse test, pre-emergence, LOLPE; details: 250 g/Ha, evaluated after 13 days
Protocol: as §3

[6] = tested on: Alopecurus myosuroides (ALOMY); experiment: Herbicidal glasshouse test, post-emergence, ALOMY; details: 250 g/Ha, evaluated after 13 days
Protocol: as §3

[7] = tested on: wheat crop plants; experiment: Crop phytotoxicity comparison, post-emergence, wheat
Protocol: as §1, §2

[8] = tested on: Avena fatua (AVEFA); experiment: Herbicidal glasshouse test, pre-emergence, AVEFA; details: 250 g/Ha, evaluated after 13 days
Protocol: as §3

[9] = tested on: Echinochloa crus-galli (ECHCG); experiment: Herbicidal glasshouse test, post-emergence, ECHCG; details: 250 g/Ha, evaluated after 13 days
Protocol: as §3

[10] = tested on: Lolium perenne (LOLPE); experiment: Herbicidal glasshouse test, post-emergence, LOLPE; details: 250 g/Ha, evaluated after 13 days
Protocol: as §3

[11] = tested on: Echinochloa crus-galli (ECHCG); experiment: Herbicidal glasshouse test, pre-emergence, ECHCG; details: 250 g/Ha, evaluated after 13 days
Protocol: as §3

[12] = tested on: Alopecurus myosuroides (ALOMY); experiment: Herbicidal glasshouse test, pre-emergence, ALOMY; details: 250 g/Ha, evaluated after 13 days
Protocol: as §3

For `CC#Cc1cc(C)c(C2C(=O)CC3(CCN(C(=O)C(C)=O)CC3)CC2=O)c(C)c1` [Compound A1, 9-(2,6-dimethyl-4-prop-1-ynyl-phenyl)-3-(2-oxopropanoyl)-3-azaspiro[5.5]undecane-8,10-dione], the “% phytotoxicity observed, Barley” value ([1]; rate 30 g/ha) was 0%, the “% phytotoxicity observed, Barley” value ([1]; rate 60 g/ha) was 0% and the “percentage damage caused to the plant, five-point scale, SETFA” value [2] was 5 (5=80-100%). For the same compound, the “percentage damage caused to the plant, five-point scale, SETFA” value [3] was 5 (5=80-100%), the “percentage damage caused to the plant, five-point scale, AVEFA” value [4] was 5 (5=80-100%) and the “percentage damage caused to the plant, five-point scale, LOLPE” value [5] was 5 (5=80-100%). For the same compound, the “percentage damage caused to the plant, five-point scale, ALOMY” value [6] was 5 (5=80-100%), the “% phytotoxicity observed, Wheat” value ([7]; rate 30 g/ha) was 0% and the “% phytotoxicity observed, Wheat” value ([7]; rate 60 g/ha) was 10%. The “% phytotoxicity observed, Wheat” value ([7]; rate 60 g/ha + safener cloquintocet-mexyl (CQC) at 50 g/ha) was 0%, the “damage to the wheat and barley crops compared to prior art compound C1” value ([7]; wheat and barley crops, summary of Table B3) was “significantly less damaging” and the “percentage damage caused to the plant, five-point scale, AVEFA” value [8] was 5 (5=80-100%). The “percentage damage caused to the plant, five-point scale, ECHCG” value [9] was 5 (5=80-100%), the “percentage damage caused to the plant, five-point scale, LOLPE” value [10] was 5 (5=80-100%) and the “percentage damage caused to the plant, five-point scale, ECHCG” value [11] was 5 (5=80-100%). The “percentage damage caused to the plant, five-point scale, ALOMY” value [12] was 5 (5=80-100%).
